Measured values as given in publication PMC9324074, “Novel Insights on Human Carbonic Anhydrase Inhibitors Based on Coumalic Acid: Design, Synthesis, Molecular Modeling Investigation, and Biological Studies” (International Journal of Molecular Sciences, 2022).
Read-outs that look alike come from different tables or passages of the source.

What was measured:
Assay in all cases: stopped-flow CO2 hydrase assay
Type in all cases: biochemical
hCA II = biological target: T1, hCA II (Homo sapiens, UniProt P00918); details: read-out: KI (μM) ^a / hCA I
T1 construct: gene CA2; recombinant, obtained in house
Source text: stopped-flow CO2 hydrase assay on hCA II

hCA I = biological target: T2, hCA I (Homo sapiens, UniProt P00915)
T2 construct: gene CA1; recombinant, obtained in house
T2 sequence (P00915 2-261): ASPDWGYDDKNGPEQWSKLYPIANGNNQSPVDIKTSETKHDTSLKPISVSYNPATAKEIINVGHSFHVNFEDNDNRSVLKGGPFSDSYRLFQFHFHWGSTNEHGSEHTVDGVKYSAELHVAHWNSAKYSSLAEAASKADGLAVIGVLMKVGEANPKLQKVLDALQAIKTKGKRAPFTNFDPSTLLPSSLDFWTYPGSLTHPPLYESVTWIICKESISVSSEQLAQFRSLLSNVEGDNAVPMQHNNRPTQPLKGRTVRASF
Source text: stopped-flow CO2 hydrase assay on hCA I

hCA XII = biological target: T3, hCA XII (Homo sapiens, UniProt O43570)
T3 construct: gene CA12; recombinant, obtained in house
T3 sequence (O43570 30-289 limits assumed): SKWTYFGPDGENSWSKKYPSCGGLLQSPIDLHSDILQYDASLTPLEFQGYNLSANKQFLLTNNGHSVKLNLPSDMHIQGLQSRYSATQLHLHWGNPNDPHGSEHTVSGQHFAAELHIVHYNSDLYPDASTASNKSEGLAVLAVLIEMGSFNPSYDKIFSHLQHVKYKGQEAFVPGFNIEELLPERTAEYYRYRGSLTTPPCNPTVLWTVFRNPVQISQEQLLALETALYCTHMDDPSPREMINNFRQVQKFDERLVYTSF
Source text: stopped-flow CO2 hydrase assay on hCA XII

hCA IX = biological target: T4, hCA IX (Homo sapiens, UniProt Q16790)
T4 construct: gene CA9; recombinant, obtained in house
Source text: stopped-flow CO2 hydrase assay on hCA IX

[1] = pH […] ([…] Hepes), […] Na2SO4, […] min preincubation at room temperature

Ki (hCA II)	Ki (hCA I)	Ki (hCA XII)	Ki (hCA IX)	Ki (hCA II; [1])	Ki (hCA I; [1])	Ki (hCA XII; [1])	Ki (hCA IX; [1])	Compound
> 100 µM	> 100 µM	0.08 µM	0.146 µM	–	–	–	–	O=C(Nc1ccccc1Cc1ccccc1)c1ccc(=O)oc1 [compound 12, N-(2-Benzylphenyl)-2-oxo-2H-pyran-5-carboxamide]
> 100 µM	> 100 µM	0.076 µM	0.083 µM	–	–	–	–	O=C(Nc1ccc(-c2ccccc2)cc1)c1ccc(=O)oc1 [compound 11, N-([1,1′-Biphenyl]-4-yl)-2-oxo-2H-pyran-5-carboxamide]
> 100 µM	> 100 µM	0.086 µM	0.098 µM	–	–	–	–	O=C(NC1CCCCC1)c1ccc(=O)oc1 [compound 14, N-Cyclohexyl-2-oxo-2H-pyran-5-carboxamide]
> 100 µM	> 100 µM	0.094 µM	3.69 µM	–	–	–	–	O=C(Nc1cccc2ccccc12)c1ccc(=O)oc1 [compound 13, N-(Naphthalen-1-yl)-2-oxo-2H-pyran-5-carboxamide]
–	–	–	–	> 100 µM	> 100 µM	0.087 µM	0.326 µM	N-(3-Morpholinopropyl)-2-oxo-2H-pyran-5-carboxamide [compound 15]

More lines, now with the values behind:

Compound	Ki (hCA II)	Ki (hCA I)	Ki (hCA XII)	Ki (hCA IX)	Ki (hCA II; [1])	Ki (hCA I; [1])	Ki (hCA XII; [1])	Ki (hCA IX; [1])
O=C(Nc1ccc(Cl)cc1)c1ccc(=O)oc1 [compound 8, N-(4-Chlorophenyl)-2-oxo-2H-pyran-5-carboxamide]	> 100 µM	> 100 µM	0.7 µM	3.2 µM	–	–	–	–
Cc1cccc(NC(=O)c2ccc(=O)oc2)c1 [compound 4, 2-Oxo-N-(m-tolyl)-2H-pyran-5-carboxamide]	> 100 µM	> 100 µM	0.09 µM	0.174 µM	–	–	–	–
O=C(Nc1ccccc1I)c1ccc(=O)oc1 [compound 10, N-(2-Iodophenyl)-2-oxo-2H-pyran-5-carboxamide]	> 100 µM	> 100 µM	0.081 µM	0.281 µM	–	–	–	–
O=C(Nc1ccc(Br)cc1)c1ccc(=O)oc1 [compound 9, N-(4-Bromophenyl)-2-oxo-2H-pyran-5-carboxamide]	> 100 µM	> 100 µM	0.089 µM	0.082 µM	–	–	–	–
COc1cccc(NC(=O)c2ccc(=O)oc2)c1 [compound 7, N-(3-Methoxyphenyl)-2-oxo-2H-pyran-5-carboxamide]	> 100 µM	> 100 µM	0.265 µM	0.315 µM	–	–	–	–
Cc1ccc(NC(=O)c2ccc(=O)oc2)cc1 [compound 3, 2-Oxo-N-(p-tolyl)-2H-pyran-5-carboxamide]	> 100 µM	> 100 µM	0.8 µM	2.9 µM	–	–	–	–
O=C(O)c1ccc(=O)oc1 [compound 1, coumalic acid]	> 100 µM	> 100 µM	0.083 µM	0.073 µM	–	–	–	–
COc1ccc(NC(=O)c2ccc(=O)oc2)cc1 [compound 6, N-(4-Methoxyphenyl)-2-oxo-2H-pyran-5-carboxamide]	> 100 µM	> 100 µM	0.7 µM	3.1 µM	–	–	–	–
CC(C)c1ccc(NC(=O)c2ccc(=O)oc2)cc1 [compound 5, N-(4-Isopropylphenyl)-2-oxo-2H-pyran-5-carboxamide]	> 100 µM	> 100 µM	0.068 µM	0.273 µM	–	–	–	–
O=C(Nc1ccccc1)c1ccc(=O)oc1 [compound 2, 2-Oxo-N-phenyl-2H-pyran-5-carboxamide]	> 100 µM	> 100 µM	0.7 µM	3 µM	–	–	–	–
